Assay results as given in patent US20080280837A1, “Biologically Active Compounds with Anti-Angiogenic Properties” (priority 2004, published 2008).

Biological target: T1, Human SST5 somatostatin receptor (SSTR5) (Homo sapiens, UniProt P35346)
T1 construct: expressed in transfected cells; host or cells: HEK-293 EBNA
Assay: Filter plate assay for SST5 receptor, displacement of [125I]SST-14
Format: binding
Method: Receptor membrane preparations containing the desired cloned receptor (for example cloned human somatostatin receptor subtype 5, SSTR5) and radio-labeled ligand (for example 3-[^125I]iodotyrosyl^11 Somatostatin-14)) were diluted at the concentration required for testing and according to the specific parameters associated with the selected receptor-ligand combination, including receptor Bmax, ligand Kd and any other parameters necessary to optimize the experimental conditions. When tested for competition activity to the reference ligand, “compound 1” was mixed with membrane suspension and the radiolabeled reference ligand (with or without an excess of cold ligand to the receptor for determination of non-specific binding) and incubated at the temperature required by internal standard operating procedures. Following incubation, the binding reaction was stopped by the addition of ice-cold washing buffer and filtered on appropriate filters, which are then counted. Data analysis and curve-fitting was performed with XLfit (IDBS).
10 mM solutions of test compounds in 100% DMSO were prepared. ˜160 μl was used for each dilution (20 μl/well in triplicate).
A 1.25 mM assay stock was prepared by making a 1:8 dilution of the 10 mM solution. (To 30 μL of the 10 mM solution was added 210 μL milli-Q H2O. A 1:5 dilution series in milli-Q H2O was then prepared.
Assays were performed in triplicate at each concentration within the 1:5 dilution series: 250 μM, 50 μM, 10 μM, […], 0.4 μM, 0.08 μM, 0.016 μM, 0.0032 μM, etc. (for SST4 assay) and 125 μM, 10 μM, 2 μM, 1 μM, 0.5 μM, etc (for SST5 assay).
Human SST5 somatostatin receptor was transfected into HEK-293 EBNA cells. Membranes were suspended in assay buffer (50 mM Tris-HCl, 1 mM EGTA, 5 mM MgCl2, 10% sucrose, pH 7.5).
After thawing the frozen receptor preparation rapidly, receptors were diluted with binding buffer, homogenized, and kept on ice. • 1. Use Multiscreen glass fiber filter plates (Millipore, Cat No MAFCNOB10) precoated with o.5% PEI for ˜2 hr at 4° C. Before use add 200 μl/well assay buffer and filter using Multiscreen Separation System. • 2. Incubate 5.5 μg of membranes (40 μl of a 1:40 dilution), buffer and [^125I]SST-14 (4 nM, ˜80 000 cpm, 2000 Ci/mmol) in a total volume of 200 μl for 60 min at 25° C. […] Prepare serial dilutions (1:5) of compounds, as described above and instead of adding SST-14 in well, add 20 μl of compounds (Table 1). • 3. Filter using Multiscreen Separation System with 5×0.2 ml ice-cold Assay buffer. • 4. Remove the plastic underdrain and dry plate in oven for 1 hr at 40° C. • 5. Seal tape to the bottom of the plate. • 6. Add 50 μl/well scintillant (Supermix, Wallac, Cat No 1200-439). • 7. Seal and count in the BJET, program 2.
In primary screening experiments compounds were tested in duplicate for a particular concentration.

T1 sequence (P35346 whole entry): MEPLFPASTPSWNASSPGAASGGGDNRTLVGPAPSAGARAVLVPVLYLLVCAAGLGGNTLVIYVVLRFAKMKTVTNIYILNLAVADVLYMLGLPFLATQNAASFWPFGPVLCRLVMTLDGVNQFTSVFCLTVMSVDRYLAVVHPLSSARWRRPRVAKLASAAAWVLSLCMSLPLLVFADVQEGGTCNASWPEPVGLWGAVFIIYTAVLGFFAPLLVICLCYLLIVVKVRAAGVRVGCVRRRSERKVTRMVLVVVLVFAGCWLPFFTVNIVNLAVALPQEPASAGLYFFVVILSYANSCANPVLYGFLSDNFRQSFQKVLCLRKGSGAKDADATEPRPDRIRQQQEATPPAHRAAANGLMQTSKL

SSTR5 Inhib 0.5 uM % (inhibition of binding of SST-14 to SSTR5) [%]	SSTR5 Inhib 10 uM % (inhibition of binding of SST-14 to SSTR5) [%]	Structure (SMILES)
38	78	COC1C(O)C(COCc2ccc3ccccc3c2)OC(OCCc2ccccc2)C1NC(=O)CCCN (centres unmarked) [Compound 140]
39	79	COC[C@H]1OC(OCc2ccccc2)[C@H](NC(=O)CCCNC(=N)N)[C@H](OCc2ccc(Cl)cc2)[C@@H]1O (some centres unmarked) [Compound 138]
47	72	COC[C@H]1OC(OCCc2ccccc2)[C@H](NC(=O)CCCNC(=N)N)[C@@H](OCc2ccc(Cl)cc2)[C@@H]1O (some centres unmarked) [Compound 168]
88	98	COC[C@H]1OC(OCc2ccc(Cl)cc2)[C@H](NC(=O)CCCN)[C@@H](OCc2ccc3ccccc3c2)[C@@H]1O (some centres unmarked) [Compound 19]
60	87	COC1C(O)C(COCc2ccc3ccccc3c2)OC(OCc2ccc3ccccc3c2)C1NC(=O)CCCN (centres unmarked) [Compound 81]
77	94	COC[C@H]1OC(OCCc2ccccc2)[C@H](NC(=O)CCCN)[C@@H](OCc2ccc(Cl)cc2)[C@@H]1O (some centres unmarked) [Compound 42]
36	78	COC1C(O)C(COCc2ccc(Cl)cc2)OC(OCCc2ccccc2)C1NC(=O)CCCN (centres unmarked) [Compound 141]
44	88	COC[C@H]1OC(OCc2ccc(-c3ccccc3)cc2)[C@H](NC(=O)CCCN)[C@@H](OCc2ccc(-c3ccccc3)cc2)[C@@H]1O (some centres unmarked) [Compound 80]
40	81	COC[C@H]1OC(OCc2ccc(Cl)cc2)[C@H](NC(=O)CCNC(=N)N)[C@@H](OCc2ccc(Cl)cc2)[C@@H]1O (some centres unmarked) [Compound 123]
67	96	COC[C@H]1OC(OCc2ccc(Cl)cc2)[C@H](NC(=O)CCCN)[C@H](OCc2ccc3ccccc3c2)[C@@H]1O (some centres unmarked) [Compound 24]
35	76	CSC1O[C@H](COCc2ccccc2)[C@@H](O)[C@@H](OCc2ccc(-c3ccccc3)cc2)[C@H]1NC(=O)CNC(=N)N (some centres unmarked) [Compound 149]
58	86	CSC1O[C@H](COCc2ccc3ccccc3c2)[C@@H](O)[C@@H](OCc2ccccc2)[C@H]1NC(=O)CCNC(=N)N (some centres unmarked) [Compound 89]
64	91	COC[C@H]1OC(OCc2ccc3ccccc3c2)[C@H](NC(=O)CCNC(=N)N)[C@H](OCc2ccc3ccccc3c2)[C@@H]1O (some centres unmarked) [Compound 57]
34	80	CSC1O[C@H](COCc2ccc(Cl)cc2)[C@@H](O)[C@@H](OCc2ccc3ccccc3c2)[C@H]1NC(=O)CCNC(=N)N (some centres unmarked) [Compound 125]
33	76	COC[C@H]1OC(OCc2ccccc2)[C@H](NC(=O)CCCN)[C@H](OCc2ccccc2)[C@@H]1O (some centres unmarked) [Compound 154]
47	84	COC[C@H]1OC(OCc2ccc3ccccc3c2)[C@H](NC(=O)CCCNC(=N)N)[C@@H](OCc2ccc3ccccc3c2)[C@@H]1O (some centres unmarked) [Compound 104]
69	92	COC[C@H]1OC(OCc2ccc3ccccc3c2)[C@H](NC(=O)CCNC(=N)N)[C@@H](OCc2ccc(-c3ccccc3)cc2)[C@@H]1O (some centres unmarked) [Compound 52]

SSTR5 Inhib 0.5 uM % (inhibition of binding of SST-14 to SSTR5) [%]	SSTR5 Inhib 10 uM % (inhibition of binding of SST-14 to SSTR5) [%]	Structure (SMILES)
35	78	CO[C@H]1[C@H](O)[C@@H](COCc2ccc(Cl)cc2)OC(OCc2ccc3ccccc3c2)[C@@H]1NC(=O)CCCN (some centres unmarked) [Compound 143]
29	70	CO[C@H]1[C@H](O)[C@@H](COCc2ccc(-c3ccccc3)cc2)OC(OCc2ccc(-c3ccccc3)cc2)[C@@H]1NC(=O)CCCN (some centres unmarked) [Compound 179]
61	90	COC[C@H]1OC(OCCc2ccccc2)[C@H](NC(=O)CCCN)[C@@H](OCc2ccc(-c3ccccc3)cc2)[C@@H]1O (some centres unmarked) [Compound 65]
43	88	COC1C(O)C(COCc2ccc(Cl)cc2)OC(OCc2ccc(-c3ccccc3)cc2)C1NC(=O)CCNC(=N)N (centres unmarked) [Compound 78]
79	95	COC[C@H]1OC(OCc2ccc(-c3ccccc3)cc2)[C@H](NC(=O)CCCN)[C@@H](OCc2ccc3ccccc3c2)[C@@H]1O (some centres unmarked) [Compound 38]
53	86	CSC1O[C@H](COCc2ccccc2)[C@@H](O)[C@@H](OCc2ccc3ccccc3c2)[C@H]1NC(=O)CCCNC(=N)N (some centres unmarked) [Compound 91]
18	89	CO[C@H]1[C@H](O)[C@@H](COCc2ccc(-c3ccccc3)cc2)OC(OCc2ccc(-c3ccccc3)cc2)[C@@H]1NC(=O)CNC(=N)N (some centres unmarked) [Compound 70]
28	80	CSC1O[C@H](COCc2ccccc2)[C@@H](O)[C@@H](OCc2ccc3ccccc3c2)[C@H]1NC(=O)CCNC(=N)N (some centres unmarked) [Compound 128]
39	81	CO[C@H]1[C@H](O)[C@@H](COCc2ccc(Cl)cc2)OC(OCc2ccc(Cl)cc2)[C@@H]1NC(=O)CCCN (some centres unmarked) [Compound 122]
34	73	COC[C@H]1OC(OCc2ccccc2)[C@H](NC(=O)CCN)[C@H](OCc2ccccc2)[C@@H]1O (some centres unmarked) [Compound 163]
48	80	CSC1O[C@H](COCc2ccc(-c3ccccc3)cc2)[C@@H](O)[C@@H](OCc2ccc3ccccc3c2)[C@H]1NC(=O)CCCN (some centres unmarked) [Compound 127]
51	88	COC[C@H]1OC(OCc2ccccc2)[C@H](NC(=O)CCCN)[C@H](OCc2ccc3ccccc3c2)[C@@H]1O (some centres unmarked) [Compound 76]
77	96	COC[C@H]1OC(OCc2ccc3ccccc3c2)[C@H](NC(=O)CCN)[C@H](OCc2ccc(-c3ccccc3)cc2)[C@@H]1O (some centres unmarked) [Compound 26]
60	92	CSC1O[C@H](COCc2ccc(Cl)cc2)[C@@H](O)[C@@H](OCc2ccc3ccccc3c2)[C@H]1NC(=O)CCCNC(=N)N (some centres unmarked) [Compound 49]
68	95	COC[C@H]1OC(OCc2ccc(Cl)cc2)[C@H](NC(=O)CCCN)[C@@H](OCc2ccc(Cl)cc2)[C@@H]1O (some centres unmarked) [Compound 33]
48	84	COC[C@H]1OC(OCc2ccc3ccccc3c2)[C@H](NC(=O)CCCNC(=N)N)[C@@H](OCc2ccc(Cl)cc2)[C@@H]1O (some centres unmarked) [Compound 103]
44	85	COC[C@H]1OC(OCc2ccccc2)[C@H](NC(=O)CCCN)[C@@H](OCc2ccc(-c3ccccc3)cc2)[C@@H]1O (some centres unmarked) [Compound 95]
